Values quoted from earlier work in publication PMC5907794 (Journal of Medicinal Chemistry, 2018).

Key:
[1] = ref 60−63
[2] = ref 60−62

Solubility in aqueous media (in words) [2]: low solubility in aqueous media
SMILES: CC(=O)O[C@H]1C(=O)[C@@]2(C)[C@H]([C@H](OC(=O)c3ccccc3)[C@]3(O)C[C@H](OC(=O)[C@H](O)[C@@H](NC(=O)c4ccccc4)c4ccccc4)C(C)=C1C3(C)C)[C@]1(OC(C)=O)CO[C@@H]1C[C@@H]2O [Paclitaxel, paclitaxel]
Dose-limiting side effects [1]: severe dose-limiting side effects
